Results from article PMC11249646, “Small-Molecule Disruptors of the Interaction between Calcium- and Integrin-Binding Protein 1 and Integrin αIIbβ3 as Novel Antiplatelet Agents” (ACS Pharmacology & Translational Science, 2024).
Read-outs that look alike come from different tables or passages of the source.

Biological target: T1, CIB1 and αIIb interaction (CIB1-GST : F-αIIb peptide) (Homo sapiens, UniProt Q99828)
T1 construct: made in house; host or cells: BL-21 plus RIL cells (E. coli)
T1 sequence (Q99828 1-191): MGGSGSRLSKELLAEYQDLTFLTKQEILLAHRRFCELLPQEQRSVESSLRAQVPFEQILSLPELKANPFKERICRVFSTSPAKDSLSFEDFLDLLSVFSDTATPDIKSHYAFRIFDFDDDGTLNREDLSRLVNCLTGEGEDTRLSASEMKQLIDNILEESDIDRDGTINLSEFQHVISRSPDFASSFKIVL
Test: FP assay, 1536-well qHTS format (primary and confirmatory screen)
Format: binding

[1] = qHTS primary screen hits, Table S2, NPACT library, negative sign = inhibitory curve
[2] = qHTS primary screen hits, Table S2, negative = inhibition
[3] = qHTS primary screen hits, Table S2, read-out: IC50
[4] = qHTS primary screen of LOPAC/NPACT libraries, negative = inhibition
[5] = qHTS primary screen of LOPAC/NPACT libraries, negative sign = inhibitory curve
[6] = qHTS primary screen of LOPAC/NPACT libraries, read-out: IC50
[7] = qHTS primary screen hits, Table S2, negative sign = inhibitory curve, several classes where COUNT > 1
[8] = qHTS primary screen hits, Table S2, negative sign = inhibitory curve
[9] = qHTS FP screen hits, Table S2, negative = inhibition
[10] = qHTS FP screen hits, Table S2, read-out: IC50

SMILES	Efficacy (%) [2] [%]	IC50 [3] [µM]	Efficacy (%) [4] [%]	Curve Class [5]	IC50 [6] [µM]	also measured
CC(=O)N[C@@H](CC(=O)O)C(=O)N[C@@H](CCC(=O)O)C(=O)N[C@H](C(=O)N[C@@H](CC(=O)O)C(=O)Nc1ccc2c(C)cc(=O)oc2c1)C(C)C [NCGC00485360-01]	-37	39.8				Curve Class [1]: -2.4
C=C1CCC2C(C)(COC(C)=O)CCCC2(C)C1CCC(C)CC(=O)O (stereo not shown) [NCGC00384884-01]			-20	-1.4	17.8	
O=C(Nc1nc(-c2ccccc2)cs1)c1ccncc1NS(=O)(=O)c1ccc(F)c(F)c1.O=C(O)C(F)(F)F [NCGC00344933-01]	-34	79.4				Curve Class [7]: -3
Cc1c2c(=O)n(-c3ccccc3)[nH]c2cc(=O)n1CCc1ccccc1.O=C(O)C(F)(F)F [NCGC00248471-01]	-28	50.1				Curve Class [7]: -2.4
CC(C)NC[C@@H](O)c1ccc(O)c(O)c1 [NCGC00179436-02]			-24	-2.2	50.1	
CCCCc1ncc(/C=C(\Cc2cccs2)C(=O)O)n1Cc1ccc(C(=O)O)cc1.CS(=O)(=O)O [NCGC00261493-01]			-9	-1.4	31.6	
Cc1sc2c(c1C)C(c1ccc(Cl)cc1)=N[C@@H](CC(=O)Nc1ccc(OCCOCCOCCOCCNc3cccc4c3C(=O)N(C3CCC(=O)NC3=O)C4=O)cc1)c1nnc(C)n1-2 (stereo partly shown) [NCGC00483927-01]			-26	-2.4	22.4	
CN1CCN(c2ccc(NC(=O)CN(C)Cc3c(O)ccc4ccccc34)cc2)CC1.O=C(O)C(F)(F)F [NCGC00229739-01]	-49	89.1				Curve Class [7]: -3
O=C(CCCN1CCC(n2c(=O)[nH]c3ccccc32)CC1)c1ccc(F)cc1 [NCGC00016602-04]	-58	50.1				Curve Class [8]: -2.4
COc1cc(N2CCC(N3CCN(C)CC3)CC2)ccc1Nc1ncc(Cl)c(Nc2ccccc2S(=O)(=O)C(C)C)n1 [NCGC00238453-07]			-24	-2.4	56.2	
Cc1c(C)n(Cc2ccc(-c3ccccc3C(=O)O)cc2)c2ccc(C(=O)N[C@@H](C)c3ccc([N+](=O)[O-])cc3)cc12 [NCGC00347955-01]						Efficacy (%) [9]: -32%; IC50 [10]: 23.5 µM
Cc1cc(OCCCc2c(C(=O)O)n(Cc3cccnc3)c3c(-c4c(COc5ccc(N6CCN(S(C)(=O)=O)CC6)cc5)nn(C)c4C)cccc23)cc(C)c1Cl [NCGC00347283-01]	-26	34.1				Curve Class [8]: -2.4
CC(=O)[C@]1(O)Cc2c(O)c3c(c(O)c2[C@@H](O[C@H]2C[C@H](N)[C@H](O)[C@H](C)O2)C1)C(=O)c1ccccc1C3=O [NCGC00093976-06]	-86	19.1				
CCN(CC)C(=O)N[C@@H]1C=C2c3cccc4[nH]cc(c34)C[C@@H]2N(C)C1 [NCGC00179663-03]	-60	50.1				Curve Class [7]: -2.4
NC(Cc1cc(O)c(O)cc1O)C(=O)O (stereo not shown) [NCGC00015503-06]						Curve Class: -2.1; Efficacy (%): -97%; IC50 (IC50 [μM]): 35.5 µM
COc1ccc2c(c1)C(=O)N(CCc1ccc(S(=O)(=O)NC(=O)NC3CCCCC3)cc1)C(=O)C2(C)C [NCGC00016819-06]			-31	-2.4	44.7	
N#CSc1cc(SC#N)c(N)nc1N [NCGC00371134-01]			-31	-2.4	14.1	
CNC(=O)c1ccccc1Nc1cc(Nc2ccc(N3CCOCC3)cc2OC)ncc1C(F)(F)F [NCGC00378620-04]			-24	-1.4	6.3	
CNC[C@H](O)c1cccc(O)c1 [NCGC00024257-06]	-15	5.6				Curve Class [7]: -1.2
CN(C)CC1CCn2c(c(C3=C(c4cn(C)c5ccccc45)C(=O)NC3=O)c3ccccc32)C1.Cl (stereo not shown) [NCGC00163696-04]			-28	-2.4	56.2	

SMILES	Efficacy (%) [2] [%]	IC50 [3] [µM]	Efficacy (%) [4] [%]	Curve Class [5]	IC50 [6] [µM]	also measured
O=C1c2ccccc2-c2n[nH]c3cccc1c23 [NCGC00261158-01]	-52	14.1				Curve Class [8]: -1.2
CN1CCN(c2ccc(C(=O)Nc3n[nH]c4ccc(Cc5cc(F)cc(F)c5)cc34)c(NC3CCOCC3)c2)CC1 [NCGC00484067-01]			-21	-2.4	56.2	
COC(=O)C1=C(C)NC(C)=C(C(=O)OCCN(C)Cc2ccccc2)C1c1cccc([N+](=O)[O-])c1.Cl (stereo not shown) [NCGC00261494-01]			-16	-1.2	3.5	
O=C(Nc1ccccc1)c1ccccc1NC(=O)C1CCCCC1 [NCGC00189487-01]	-27	56.2				Curve Class [7]: -2.4
CC(=O)O.Cc1cc2c(C(C)C)c(O)c(O)c(C=O)c2c(O)c1-c1c(C)cc2c(C(C)C)c(O)c(O)c(C=O)c2c1O [NCGC00016423-14]						Efficacy (%) [9]: -64%; IC50 [10]: 29.4 µM
O=c1c(O)c(-c2ccc(O)cc2O)oc2cc(O)cc(O)c12 [NCGC00261461-01]			-26	-1.2	4	
CC1=C(C(=O)Nc2ccc(C(=O)O)cc2)C(c2ccccc2Cl)N=C(Nc2nc3ccccc3o2)N1.O=C(O)C(F)(F)F (stereo not shown) [NCGC00351025-01]	-29	50.1				Curve Class [7]: -2.4
Cc1nc(CNc2ncnc3ccc(-c4ccc(CO)o4)cc23)cs1.O=C(O)C(F)(F)F [NCGC00188652-01]	-35	56.2				Curve Class [7]: -2.4
Nc1nccn2c(C3CCC(C(=O)O)CC3)nc(-c3cc4cccc(Cl)c4[nH]3)c12 (stereo not shown) [NCGC00390408-01]			-33	-2.4	50.1	
Cc1cc(C)nc(NC(=S)N2CCN(c3ccc4nonc4c3)CC2)c1.O=C(O)C(F)(F)F [NCGC00244156-01]	-25	50.1				Curve Class [7]: -2.4
Oc1cccc2cccnc12 [NCGC00090708-05]						Efficacy (%): -29%; IC50 (IC50 [μM]): 117 µM
COc1cc(Nc2cc(C#N)nc3cc(OCCCN4CCN(C)CC4)c(OC)cc23)c(Cl)cc1Cl [NCGC00390366-01]			-33	-2.4	56.2	
CCOC(=O)c1c(NC(=O)CN2CCCCC2)sc2c1CCN(C(=O)OCC)C2.O=C(O)C(F)(F)F [NCGC00092717-02]	-31	89.1				Curve Class [8]: -2.4
CN1Cc2c(N)cccc2C(c2ccccc2)C1.O=C(O)/C=C\C(=O)O (stereo not shown) [NCGC00015727-06]	-62	50.1				Curve Class [8]: -2.2
Fc1cc(Nc2nc(-c3ccncc3)nc3ccccc23)ccc1N1CCNCC1.O=C(O)C(F)(F)F [NCGC00345204-01]	-36	89.1				Curve Class [7]: -2.4
COc1ccc(Cl)cc1C(=O)NCCc1ccc(S(=O)(=O)NC(=O)NC2CCCCC2)cc1 [NCGC00015467-16]			-14	-2.4	31.6	
CCOC(=O)N1CCN([N+]([O-])=NOc2ccc([N+](=O)[O-])cc2[N+](=O)[O-])CC1 [NCGC00261300-01]	-44	21.3				
O=C(O)c1ccccn1 [NCGC00165993-02]	-21	44.7				Curve Class [8]: -2.4
C=C(C)C(=O)OC1CC2(C)OC(=CC2=O)C(=C)CC2OC(=O)C(COC)C12 (stereo not shown) [NCGC00380534-01]	-17	28.2				Curve Class [1]: -1.4
CC(=O)NC(C)c1cc(Cl)c2cccnc2c1O (stereo not shown) [NCGC00183686-01]	-34	44.7				Curve Class [7]: -2.4
